Measured values as given in US11324714B2 (priority 2008, dated 2022).

Tested on: advanced lymphomas
Experiment: Phase II multi-center trial in patients with advanced lymphomas
Assay type: in vivo, human
Description: A Phase II multi-center trial of SGLU-1 (darinaparsin) was conducted in patients diagnosed with advanced lymphomas. Eligible patients required therapy and received at least 1 prior therapy. Patients received 300 mg/m^2 of darinaparsin intravenously for 5 consecutive days every 28 days (1 cycle) and were then evaluated for efficacy and safety by standard criteria. Treatment continued until toxicity or progression. To date the study has accrued 22 patients (15 non Hodgkin's [NHL], 7 Hodgkin's); 12 are male and 10 are female. Median age at baseline was 60.5 years (range: 28-80), ECOG performance status was ≤2, and median number of prior therapies was 3 (range: 1-6). Thirteen subjects have received at least 2 cycles of SGLU-1 and are evaluable for efficacy. Of these, 1 (diagnosed with peripheral T-cell lymphoma (PTCL)) has achieved a complete response (CR), 3 (diagnosed with diffuse large B-cell, marginal zone, and Hodgkin's nodular sclerosis, respectively) have achieved partial responses (PRs), and 2 patients with NHL have achieved stable disease (SD). In the patient with marginal zone lymphoma who achieved PR, no evidence for macroscopic disease was present, but microscopic disease was detectable on random biopsies from normal appearing gastric mucosa. All responders had been heavily pretreated (PTCL: CHOP (cyclophosphamide, doxorubicin, vincristine, and prednisolone)×6, ICE (ifosfamide, carboplatin and etoposide)×1, and EPOCH (etoposide, vincristine, doxorubicin, cyclophosphamide, and prednisone)×2; diffuse B-cell: RCHOP (rituximab, cyclophosphamide, doxorubicin, vincristine, and prednisolone)×5, RICE (rituximab, ifosfamide, carboplatin and etoposide)×3, and radiation therapy; marginal zone: rituximab×8, RCVP (rituximab, cyclophosphamide, vincristine and prednisolone)×1, and gemcitabine×1; and Hodgkin's: ICE×1, CBV (cyclophosphamide, carmustine and etoposide)×1, gemcitabine+MDX-060 (Medarex)×6). A total of 49 cycles of SGLU-1 have been administered. The only Grade 3 adverse event (AE) considered drug-related was wheezing. A total of 12 subjects have reported 37 serious adverse events (SAEs) while on study. Of these, only 2 had SAEs that were considered drug-related (neutropenic fever, fall). […] Initial responses (1 CR, 3 PRs, 2 SDs) have been observed among 13 evaluable patients.

[1] = 300 mg/m^2 i.v. 5 consecutive days every 28 days, of 13 evaluable subjects

C[As](C)SC[C@H](NC(=O)CC[C@H](N)C(=O)O)C(=O)NCC(=O)O [SGLU-1, S-(dimethylarsino) glutathione]
complete response (CR) [1]: 1 patients | partial responses (PRs) [1]: 3 patients | Grade 3 adverse event (AE) considered drug-related (22 patients, 49 cycles): wheezing | serious adverse events (SAEs) reported (22 patients, 49 cycles): 37 | subjects reporting serious adverse events (SAEs) (22 patients, 49 cycles): 12 subjects | tolerability (heavily pretreated patients with advanced lymphoma): very well tolerated | subjects with SAEs considered drug-related (neutropenic fever, fall): 2 subjects
